According to PMC11284789, “Biomimetic Analogues of the Desferrioxamine E Siderophore for PET Imaging of Invasive Aspergillosis: Targeting Properties and Species Specificity” (Journal of Medicinal Chemistry, 2024):
Where two headings read alike, the source gives them in different places.

How the values were obtained:
[1] = system: A. fumigatus mutant strain ΔsidAΔftrA; assay: Growth promotion assay (siderophore utilization), ΔsidAΔftrA; format: cell-based, Aspergillus fumigatus; conditions: siderophores in ferri-form, 0.1, 1.0, 10 and 50 μM; 48 h at 37 °C
Method: (§1) In order to investigate whether A. fumigatus is able to utilize the artificial FOX analogues in the iron form as an iron source, growth promotion assays were performed (Figure 2) using two A. fumigatus mutants. The mutant strain ΔsidAΔftrA is able to grow only in the presence of utilizable siderophores or ferrous iron concentration >3 mM.[10],[44] The second mutant, ΔsidAΔftrAΔsit1, additionally lacks the siderophore transporter Sit1, which exclusively mediates the uptake of ferrioxamine-type siderophores and is additionally involved in the uptake of ferrichrome-type and coprogen-type siderophores but not of FsC or TAFC.[19],[20] For growth promotion analysis, the mutants were spotted on iron-lacking media supplemented with different concentrations of siderophores. Control experiments confirmed the expected growth pattern: growth of ΔsidAΔftrA but not of ΔsidAΔftrAΔsit1 was promoted by supplementation with ferric FOXE; both mutant strains were able to grow in the presence of TAFC as uptake of this siderophore depends on MirB but not on Sit1; both mutant strains lacked growth without siderophore supplementation, and uninoculated media also lacked fungal growth. […] The utilization of iron from all artificial ferrioxamine analogues was mediated by Sit1 like that of natural ferrioxamine-type siderophores.[20]
Figure 2 Growth promotion analysis of FOX analogues. 10^4 conidia of A. fumigatus mutant strains ΔsidAΔftrA (A) and ΔsidAΔftrAΔsit1 (B) were point-inoculated for every condition. All natural and artificial siderophores were tested in the ferri-form in the concentrations 0.1, 1.0, 10, and 50 μM. As controls, TAFC, which is taken up in a Sit1-independent manner, and FOXE were included. Moreover, controls without siderophore supplementation with (+) or without (−) inoculation of conidia were included. Greenish coloration of the fungal colonies indicates asexual sporulation. Pictures were taken after 48 h of incubation at 37 °C. […]

[2] = system: A. fumigatus mutant strain ΔsidAΔftrAΔsit1; assay: Growth promotion assay (siderophore utilization), Sit1-lacking ΔsidAΔftrAΔsit1; format: cell-based, Aspergillus fumigatus; conditions: siderophores in ferri-form, 0.1, 1.0, 10 and 50 μM; 48 h at 37 °C
Method: as §1
Figure 2 Growth promotion analysis of FOX analogues. […]

[3] = system: iron-starved (Fe(−)) A. fumigatus cultures; assay: Short-term in vitro uptake of 68Ga-labeled siderophores; format: cell-based, Aspergillus fumigatus; conditions: paired t test, p < 0.01
Method: To investigate the short-term active transport of ^68Ga-labeled FOXE analogues by A. fumigatus, iron-starved (Fe(−)) cultures were used (Figure 3). As a control, the same cultures were incubated with Fe(III)-FOXE beforehand to saturate and therefore block Sit1-mediated activity. A decrease in uptake upon Fe(III)-FOXE blocking underlines specific uptake by the same transporters recognizing FOXE.
Figure 3 Uptake of ^68Ga-labeled FOXE analogues by Fe(III)-FOXE-blocked and -unblocked iron-starved (Fe(−)) A. fumigatus cultures after 45 min of incubation. * indicates significant difference of blocking compared with nonblocking (mean of three independent experiments, paired t test, p < 0.01).
Uptake assays were performed in both iron-deficient and iron-sufficient A. fumigatus cultures as described previously.[55] The uptake of each [^68Ga]Ga(III)-FOXE derivative was expressed as the ratio to [^68Ga]Ga(III)-FOXE uptake from the same experiment in order to normalize uptake variations between different fungal cultures. The mean values of three different assays were used to quantitatively compare the difference in uptake between the compounds.

[4] = cited from earlier work
[5] = parameters: method as in earlier work; conditions: cited from earlier work; for logβ Ga(III)L: T = 25 °C, I = 0.1 M NaClO4, M:L 1:1; for pGa(III): calculated for [L] = 1 × 10−4 [M] = 1 × 10−5 at pH 7.4
S. aureus cultures = system: S. aureus cultures; parameters: method as in PMID 34783539; conditions: 68Ga-labeled, iron-deficient cultures; cited from earlier work

| Molecule | growth promotion of ΔsidAΔftrA [1] | growth of ΔsidAΔftrAΔsit1 (Sit1 dependence) [2] | difference between Fe(III)-FOXE-blocked and -unblocked uptake [3] | logβ Fe(III)L ([4]; T = 25 °C, I = 0.1 M NaClO4, M:L 1:1) | pFe(III) ([4]; calculated for [L] = 1 × 10−4 [M] = 1 × 10−5 at pH 7.4) | logβ Ga(III)L [5] | pGa(III) [5] | uptake (radioactivity level) in S. aureus cultures (S. aureus cultures) | logβ Fe(III)L ([4]; ref Reference2) |
| --- | --- | --- | --- | --- | --- | --- | --- | --- | --- |
| triacetylfusarinine C [TAFC] | able to grow | able to grow | – | – | – | – | – | – | – |
| O=C1CCN(O)C(=O)CCNC(=O)CCN(O)C(=O)CCNC(=O)CCN(O)C(=O)CCN1 [FOX 2–2] | very limited growth promotion only at the highest tested concentration of 50 μM | – | statistically insignificant | 25.92(8) | 21.5 | 26.44(5) | 21.4 | – | – |
| O=C1CCC(=O)N(O)CCCCCNC(=O)CCC(=O)N(O)CCCCCNC(=O)CCC(=O)N(O)CCCCCN1 [FOXE, ferrioxamine E] | promoted | not | – | – | – | 29.79(1) | 25.2 | high radioactivity levels | 32.21(4) |
